Experimental data: patent US9074014B2 (Ipsen Pharma S.A.S., priority 2008, dated 2015)
*1 amine or outer side, *2 acyl side, *3 side chain or, on linkers, in order; H or OH if unused. Where a SMILES comes first, the peptide text is derived from it. Where no end group is shown, it is not given here. [ ]: non-standard residue; d: D form. X2 = O=C([C@@H]1CC(O)CN1[*:1])[*:2]; Tic = O=C(O)[C@@H]1Cc2ccccc2CN1; ΔPro = O=C(O)[C@@H]1C=CCN1; Ac6c = NC1(C(=O)O)CCCCC1; Nle = CCCC[C@H](N)C(=O)O; Ac5c = NC1(C(=O)O)CCCC1; Aib = CC(C)(N)C(=O)O

Columns and labels:
[1] = Human plasma half-life assay; format: in vitro ADME
[2] = Rat plasma half-life assay; format: in vitro ADME; parameters: half-life: dose or concentration left out as unconfirmed; conditions: for half-life at 0.1 mg/ml: read-out: Rat Plasma T½ (converted)
[3] = human plasma, 37° C., LC-MS, read-out: Human Plasma T½ (converted)

Row | Compound | half-life at 0.1 mg/ml [1, 3] [h] | half-life at 0.1 mg/ml ([2]; rat plasma, 37° C., LC-MS) [h] | further results
1 | CC[C@H](C)[C@H](NC(=O)[C@H](CCCCN)NC(=O)[C@H](CC(=O)O)NC(=O)C1(NC(=O)[C@H](C)NC(=O)[C@@H](NC(=O)C2(NC(=O)[C@H](Cc3ccc(O)cc3)NC(=O)[C@H](CC(=O)O)NC(=O)[C@H](CO)NC(=O)[C@@H](NC(=O)[C@H](Cc3ccccc3)NC(=O)[C@@H](NC(=O)CNC(=O)[C@@H]3CCCCN3C(=O)[C@H](C)NC(=O)[C@@H](N)Cc3ccc(O)cc3)[C@@H](C)O)[C@@H](C)CC)CCCC2)[C@@H](C)CC)CCCCC1)C(=O)N[C@@H](Cc1c[nH]cn1)C(=O)N[C@@H](CCC(N)=O)C(=O)N[C@@H](CCC(N)=O)C(=O)N[C@@H](CC(=O)O)C(=O)N[C@@H](Cc1ccccc1)C(=O)N[C@H](C(=O)N[C@@H](CC(N)=O)C(=O)N[C@@H](Cc1c[nH]c2ccccc12)C(=O)N[C@@H](CC(C)C)C(=O)N[C@@H](CC(C)C)C(=O)N[C@@H](C)C(=O)N[C@@H](CCC(N)=O)C(=O)N[C@@H](CCCCN)C(=O)NCC(=O)N[C@@H](CCCCN)C(=O)N[C@@H](CCCCN)C(=O)N[C@@H](CC(N)=O)C(=O)N[C@@H](CC(=O)O)C(=O)N[C@@H](Cc1c[nH]c2ccccc12)C(=O)N[C@@H](CCCCN)C(=O)N[C@@H](Cc1c[nH]cn1)C(=O)N[C@@H](CC(N)=O)C(=O)N[C@H](C(=O)N[C@H](C(=O)N[C@@H](CCC(N)=O)C(=O)O)[C@@H](C)O)[C@@H](C)CC)C(C)C [Example 83, (hPro^3, A5c^11, A6c^14)hGIP(1-42)-OH] | 32.4 | 1.1 | 
2 | CC[C@H](C)[C@H](NC(=O)[C@H](CCCCN)NC(=O)[C@H](CC(=O)O)NC(=O)[C@H](CCSC)NC(=O)[C@H](C)NC(=O)[C@@H](NC(=O)C1(NC(=O)[C@H](Cc2ccc(O)cc2)NC(=O)[C@H](CC(=O)O)NC(=O)[C@H](CO)NC(=O)[C@@H](NC(=O)[C@H](Cc2ccccc2)NC(=O)[C@@H](NC(=O)CNC(=O)[C@@H]2CCCN2C(=O)C(C)(C)NC(=O)[C@@H](N)Cc2ccc(O)cc2)[C@@H](C)O)[C@@H](C)CC)CCCC1)[C@@H](C)CC)C(=O)N[C@@H](Cc1c[nH]cn1)C(=O)N[C@@H](CCC(N)=O)C(=O)N[C@@H](CCC(N)=O)C(=O)N[C@@H](CC(=O)O)C(=O)N[C@@H](Cc1ccccc1)C(=O)N[C@H](C(=O)N[C@@H](CC(N)=O)C(=O)N[C@@H](Cc1c[nH]c2ccccc12)C(=O)N[C@@H](CC(C)C)C(=O)N[C@@H](CC(C)C)C(=O)N[C@@H](C)C(=O)N[C@@H](CCC(N)=O)C(=O)N[C@@H](CCCCN)C(N)=O)C(C)C [Example 110, (Aib^2, Pro^3, A5c^11)hGIP(1-30)-NH2] (H-Y[Aib]PGTFISDY[Ac5c]IAMDKIHQQDFVNWLLAQK-NH2; N-terminus assumed) | 13.7 | 25.8 | 
3 | CCCC[C@H](NC(=O)C(C)(C)NC(=O)[C@@H](NC(=O)[C@H](CO)NC(=O)[C@H](Cc1ccc(O)cc1)NC(=O)[C@H](CC(=O)O)NC(=O)[C@H](CO)NC(=O)[C@@H](NC(=O)[C@H](Cc1ccccc1)NC(=O)[C@@H](NC(=O)CNC(=O)[C@@H]1Cc2ccccc2CN1C(=O)[C@H](C)NC(=O)[C@@H](N)Cc1ccc(O)cc1)[C@@H](C)O)[C@@H](C)CC)[C@@H](C)CC)C(=O)N[C@@H](CC(=O)O)C(=O)N[C@@H](CCCCN)C(=O)N[C@H](C(=O)N[C@@H](Cc1c[nH]cn1)C(=O)N[C@@H](CCC(N)=O)C(=O)N[C@@H](CCC(N)=O)C(=O)N[C@@H](CC(=O)O)C(=O)N[C@@H](Cc1ccccc1)C(=O)N[C@H](C(=O)N[C@@H](CC(N)=O)C(=O)N[C@@H](Cc1c[nH]c2ccccc12)C(=O)N[C@@H](CC(C)C)C(=O)N[C@@H](CC(C)C)C(=O)N[C@@H](C)C(=O)N[C@@H](CCC(N)=O)C(=O)N[C@@H](CCCCN)C(=O)NCC(=O)N[C@@H](CCCCN)C(=O)N[C@@H](CCCCN)C(=O)N[C@@H](CC(N)=O)C(=O)N[C@@H](CC(=O)O)C(=O)N[C@@H](Cc1c[nH]c2ccccc12)C(=O)N[C@@H](CCCCN)C(=O)N[C@@H](Cc1c[nH]cn1)C(=O)N[C@@H](CC(N)=O)C(=O)N[C@H](C(=O)N[C@H](C(=O)N[C@@H](CCC(N)=O)C(=O)O)[C@@H](C)O)[C@@H](C)CC)C(C)C)[C@@H](C)CC [Example 69, (Tic^3, Aib^13, Nle^14)hGIP(1-42)-OH] | 36.9 | 1.8 | 
4 | YA[Tic]GTFISDYSI[Aib]MDKIHQQDFVNWLLAQKGKKNDWKHNITQ [Example 66, (Tic^3, Aib^13)hGIP(1-42)-OH] | 19.1 | 8.8 | 
5 | YA[ΔPro]GTFISDYSI[Aib][Nle]DKIHQQDFVNWLLAQKGKKNDWKHNITQ-OH [Example 64, (Dhp^3, Aib^13, Nle^14)hGIP(1-42)-OH] |  |  | Human Plasma T½ ([1]; human plasma, 37° C., LC-MS): 41.3 h; Rat Plasma T½ ([2]; rat plasma, 37° C., LC-MS): 47.5 h
6 | CC[C@H](C)[C@H](NC(=O)[C@H](CCCCN)NC(=O)[C@H](CC(=O)O)NC(=O)[C@H](CCSC)NC(=O)[C@H](C)NC(=O)[C@@H](NC(=O)C1(NC(=O)[C@H](Cc2ccc(O)cc2)NC(=O)[C@H](CC(=O)O)NC(=O)[C@H](CO)NC(=O)[C@@H](NC(=O)[C@H](Cc2ccccc2)NC(=O)[C@@H](NC(=O)CNC(=O)[C@@H]2CCCCN2C(=O)[C@H](C)NC(=O)[C@@H](N)Cc2ccc(O)cc2)[C@@H](C)O)[C@@H](C)CC)CCCC1)[C@@H](C)CC)C(=O)N[C@@H](Cc1c[nH]cn1)C(=O)N[C@@H](CCC(N)=O)C(=O)N[C@@H](CCC(N)=O)C(=O)N[C@@H](CC(=O)O)C(=O)N[C@@H](Cc1ccccc1)C(=O)N[C@H](C(=O)N[C@@H](CC(N)=O)C(=O)N[C@@H](Cc1c[nH]c2ccccc12)C(=O)N[C@@H](CC(C)C)C(=O)N[C@@H](CC(C)C)C(=O)N[C@@H](C)C(=O)N[C@@H](CCC(N)=O)C(=O)N[C@@H](CCCCN)C(=O)NCC(=O)N[C@@H](CCCCN)C(=O)N[C@@H](CCCCN)C(=O)N[C@@H](CC(N)=O)C(=O)N[C@@H](CC(=O)O)C(=O)N[C@@H](Cc1c[nH]c2ccccc12)C(=O)N[C@@H](CCCCN)C(=O)N[C@@H](Cc1c[nH]cn1)C(=O)N[C@@H](CC(N)=O)C(=O)N[C@H](C(=O)N[C@H](C(=O)N[C@@H](CCC(N)=O)C(=O)O)[C@@H](C)O)[C@@H](C)CC)C(C)C [Example 74, (hPro^3, A5c^11)hGIP(1-42)-OH] | 16.3 | 1.3 | 
7 | Y[Aib]EGTF[Ac6c]SDYSIA[Nle]DKIHQQDFVNWLL[Aib]QKGKKNDWKHNITQ-OH [Example 30, (Aib^2, 28, A6c^7, Nle^14)hGIP(1-42)-OH] | > 48 | 13.4 | 
8 | H-YAPGTFISDYSIAMDKIHQQDFVNWLLAQKGKKNDWKHNITQ-OH [[Pro^3]hGIP(1-42)-OH, reference compound] |  |  | half-life at 0.1 mg/ml ([1]; human, plasma, same experimental conditions as Table 2, read-out: human plasma half-life (converted)): 10.8 h; half-life ([2]; rat, plasma, same experimental conditions as Table 2, read-out: rat plasma half-life (converted)): 0.8 h
9 | YA[X2]GTFISDYSI[Aib]MDKIHQQDFVNWLLAQKGKKNDWKHNITQ [Example 67, (4Hyp^3, Aib^13)hGIP(1-42)-OH] | > 33 | 1.6 | 
10 | CCCC[C@H](NC(=O)[C@H](C)NC(=O)[C@@H](NC(=O)C1(NC(=O)[C@H](Cc2ccc(O)cc2)NC(=O)[C@H](CC(=O)O)NC(=O)[C@H](CO)NC(=O)[C@@H](NC(=O)[C@H](Cc2ccccc2)NC(=O)[C@@H](NC(=O)CNC(=O)[C@@H]2CCCN2C(=O)C(C)(C)NC(=O)[C@@H](N)Cc2ccc(O)cc2)[C@@H](C)O)[C@@H](C)CC)CCCC1)[C@@H](C)CC)C(=O)N[C@@H](CC(=O)O)C(=O)N[C@@H](CCCCN)C(=O)N[C@H](C(=O)N[C@@H](Cc1c[nH]cn1)C(=O)N[C@@H](CCC(N)=O)C(=O)N[C@@H](CCC(N)=O)C(=O)N[C@@H](CC(=O)O)C(=O)N[C@@H](Cc1ccccc1)C(=O)N[C@H](C(=O)N[C@@H](CC(N)=O)C(=O)N[C@@H](Cc1c[nH]c2ccccc12)C(=O)N[C@@H](CC(C)C)C(=O)N[C@@H](CC(C)C)C(=O)N[C@@H](C)C(=O)N[C@@H](CCC(N)=O)C(=O)N[C@@H](CCCCN)C(N)=O)C(C)C)[C@@H](C)CC [Example 111, (Aib^2, Pro^3, A5c^11, Nle^14)hGIP(1-30)-NH2] | > 54 | > 54 | 
11 | CC[C@H](C)[C@H](NC(=O)[C@H](CO)NC(=O)[C@H](Cc1ccc(O)cc1)NC(=O)[C@H](CC(=O)O)NC(=O)[C@H](CO)NC(=O)[C@@H](NC(=O)[C@H](Cc1ccccc1)NC(=O)C1(NC(=O)CNC(=O)[C@H](CCC(=O)O)NC(=O)C(C)(C)NC(=O)[C@@H](N)Cc2ccc(O)cc2)CCCC1)[C@@H](C)CC)C(=O)N[C@@H](C)C(=O)N[C@@H](CCSC)C(=O)N[C@@H](CC(=O)O)C(=O)N[C@@H](CCCCN)C(=O)N[C@H](C(=O)N[C@@H](Cc1c[nH]cn1)C(=O)N[C@@H](CCC(N)=O)C(=O)N[C@@H](CCC(N)=O)C(=O)N[C@@H](CC(=O)O)C(=O)N[C@@H](Cc1ccccc1)C(=O)N[C@H](C(=O)N[C@@H](CC(N)=O)C(=O)N[C@@H](Cc1c[nH]c2ccccc12)C(=O)N[C@@H](CC(C)C)C(=O)N[C@@H](CC(C)C)C(=O)N[C@@H](C)C(=O)N[C@@H](CCC(N)=O)C(=O)N[C@@H](CCCCN)C(N)=O)C(C)C)[C@@H](C)CC [Example 11, (Aib^2, A5c^5)hGIP(1-30)-NH2] | 44.4 | > 48 | 
12 | Y[Aib]EGTF[Ac6c]SDYSIA[Nle]DKIHQQDFVNWLLAQKGKKNDWKHNI[Aib]Q-OH [Example 25, (Aib^2, 41, A6c^7, Nle^14)hGIP(1-42)-OH] | > 48 | 8.4 | 
13 | Y[Aib]EGTFISDY[Ac5c]IA[Nle]DKIHQQDFVNWLLAQKGKKNDWKHNITQ-OH [Example 54, (Aib^2, A5c^11, Nle^14)hGIP(1-42)-OH] | > 56 | 44.1 | 
